The values below are quoted from earlier work in patent US20240226204A9 (priority 2021, published 2024).

In the data set the test system is COVID-19. The note with it: human, in vivo.

As to `C[C@@H]1C[C@H]2[C@@H]3CCC4=CC(=O)C=C[C@]4(C)[C@@]3(F)[C@@H](O)C[C@]2(C)[C@@]1(O)C(=O)CO` [dexamethasone], the mortality result is recorded as “increase in mortality”.

As for `CCN(CCO)CCCC(C)Nc1ccnc2cc(Cl)ccc12` (stereo not drawn) [hydroxychloroquine], the “efficacy / antiviral effect in clinical use against COVID-19” value is listed as “lack of efficacy”.

Consider lopinavir-ritonavir, for which the “efficacy / antiviral effect in clinical use against COVID-19” value is “lack of efficacy”.
